These results are taken from publication PMC7747594, “Protease-activated receptor-2 ligands reveal orthosteric and allosteric mechanisms of receptor inhibition” (Communications Biology, 2020).

For one test, the target named is T1, hPAR2 (Homo sapiens, UniProt P55085).
T1 sequence (P55085 26-397): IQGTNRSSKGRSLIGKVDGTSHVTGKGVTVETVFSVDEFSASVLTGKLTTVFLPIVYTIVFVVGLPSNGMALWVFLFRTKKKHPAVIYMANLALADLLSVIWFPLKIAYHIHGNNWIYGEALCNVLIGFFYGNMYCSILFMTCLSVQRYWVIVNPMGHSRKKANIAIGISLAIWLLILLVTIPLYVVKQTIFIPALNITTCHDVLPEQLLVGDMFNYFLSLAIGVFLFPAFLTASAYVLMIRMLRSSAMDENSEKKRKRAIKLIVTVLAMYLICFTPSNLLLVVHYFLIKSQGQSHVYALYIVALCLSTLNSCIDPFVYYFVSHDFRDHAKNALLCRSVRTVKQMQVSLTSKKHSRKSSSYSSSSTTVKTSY
In words: pERK1/2 assay, agonist mode, U2OS-hPAR2 cells. The test is classed as cell-based. On the set-up: agonist response (Fig 2e), individual replicate values: unit not given here.

Another test deals with parental 1321N1 cells. Put plainly: Ca^2+ flux assay, agonist mode, parental 1321N1 cells. The test is classed as cell-based. Details: Ca2+ response (Fig 2c), individual replicate values: unit not given here. Conditions: for Ca2+ response (Fig 2c), individual replicate values: control. The protocol:
Cells were loaded with Fluo-8 NW calcium dye (AAT Bioquest) for 30 min at 37 °C before compounds in Hank’s balanced salt solution (HBSS, ThermoFisher Scientific) with 20 mM HEPES (ThermoFisher Scientific), 0.1% bovine serum albumin (BSA, Sigma) and 0.5% DMSO were added and simultaneously evaluated for changes in intracellular [Ca^2+] using FLIPR TETRA (Molecular Devices) to detect agonism. For each concentration, the difference between the maximum peak Ca^2+ response and baseline response is reported. […] Antagonism experiments were also carried out on 1321N1-PAR2[WT], 1321N1-PAR2[F154A], and 1321N1-PAR2[G157C] as described. Experiments with trypsin in 1321N1-hPAR2 cells were performed in the presence of 1 µM Vorapaxar (Chemtronica) to remove any interference of PAR1 activity. […] Antagonism experiments for CHO-hPAR2 and HT-29 cells were performed in 96-well plates at 30,000 cells/well. Cells were loaded with Fluo-3 AM calcium dye (Sigma-Aldrich) for 60 min at 37 °C in HBSS with 1% FBS, 0.2% pluronic acid, 20 mM HEPES and 2.5 mM probenecid prior to the addition of antagonist. The antagonist was pre-incubated for 60 min at 37 °C followed by the addition of bovine trypsin (30 nM) at EC80. Intracellular [Ca^2+] flux was measured using FLIPR TETRA (Molecular Devices) and the difference between the maximum peak Ca^2+ response and baseline response is reported.

The target in test [1] is T2, PAR2 stabilised receptor (StaR) (Homo sapiens, UniProt P55085).
T2 sequence (P55085 55-377): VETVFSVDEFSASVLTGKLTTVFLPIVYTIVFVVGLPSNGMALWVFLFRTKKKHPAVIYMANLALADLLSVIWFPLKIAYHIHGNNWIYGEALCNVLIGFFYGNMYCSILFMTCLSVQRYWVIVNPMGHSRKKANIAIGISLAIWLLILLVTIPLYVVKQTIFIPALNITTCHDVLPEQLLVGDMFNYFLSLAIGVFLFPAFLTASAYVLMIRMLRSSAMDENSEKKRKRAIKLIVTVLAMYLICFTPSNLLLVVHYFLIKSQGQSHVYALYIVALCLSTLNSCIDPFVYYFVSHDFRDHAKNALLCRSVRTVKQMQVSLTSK
In words: Surface plasmon resonance (SPR) binding, single-cycle kinetics. Conditions: n of 2, earlier manuscript version quoted by reviewer.

The target in test [2] is T2, PAR2 stabilised receptor (StaR). Conditions: SPR, previously reported; cited from earlier work. (In general: In SPR one partner is held on a chip, and binding of the other changes the refractive index at the surface.)

Molecules are shown by their SMILES. “And” between values parts separate entries of the source, which are not always exact repeats. Identical values can stand only once.

Regarding `CNC(=O)[C@H]1CC[C@@H](NC(=O)[C@H](CC2CCCCC2)NC(=O)c2cn(Cc3ccccc3)nn2)c2ccccc21` [AZ2429], the EC50 at hPAR2 (U2OS-hPAR2, mean ± s.e.m., read-out: pERK1/2 pEC50 (converted)) is 39.8 nM. Besides, the “agonist response (Fig 2e), individual replicate values” at hPAR2 ([compound],M -4.52288) is 92.0141 and 74.7053 and 111.675 and 66.5866 and 60.3473 and 74.0471 and 117.965 and 130.52 and 124.805 and 98.7887 and 171.327 and 138.91; on hPAR2 ([compound],M -5) it was 145.403 and 95.3612 and 122.434 and 53.1755 and 72.071 and 69.3732 and 123.833 and 115.408 and 143.854 and 198.596 and 120.076 and 126.959; on hPAR2 ([compound],M -5.47712), 102.451 and 94.8209 and 99.914 and 62.5677 and 62.1847 and 84.7772 and 121.954 and 124.064 and 131.389 and 108.103 and 101.197 and 120.75; on hPAR2 ([compound],M -5.95424) it was 89.9122 and 82.9611 and 84.3447 and 63.5614 and 54.0303 and 47.0028 and 93.3928 and 116.239 and 97.5862 and 98.4234 and 105.569 and 117.075; on hPAR2 ([compound],M -6.43136), 89.3258 and 69.9482 and 44.5682 and 54.9685 and 62.0293 and 44.3162 and 80.2501 and 88.0999 and 54.8467 and 72.3986 and 88.607 and 61.7832; at hPAR2 ([compound],M -6.90849) it was 70.3304 and 41.0432 and 36.2531 and 47.5801 and 30.25 and 29.0399 and 34.5189 and 34.3783 and 18.7041 and 36.9798 and 32.4711 and 22.2209. Besides, the “agonist response (Fig 2e), individual replicate values” at hPAR2 ([compound],M -7.38561) was 20.4269 and 21.9818 and 16.3418 and 12.8089 and 11.7486 and 24.5769 and 9.704 and 15.3673 and 6.674 and 12.0051 and 3.09 and 15.3723; on hPAR2 ([compound],M -7.86273), 4.95 and -1.995 and 15.7225 and 4.505 and 8.124 and 3.783 and 3.311 and 7.198 and -0.6009 and -4.9 and 2.6 and 2.634; at hPAR2 ([compound],M -8.33985) it was 2.5581 and 8.989 and 6.59 and 1.141. Also, the “Ca^2+ mobilisation in parental 1321N1 cells” value in the test with parental 1321N1 cells is recorded as “No Ca^2+ mobilisation could be detected”. For the same compound, the “Ca2+ response (Fig 2c), individual replicate values” is -0.222 and -3.029 and 1.6687 and -8.186 in the test on parental 1321N1 cells ([compound],M -4.30103); -2.571 and -2.17 and -0.3366 and -1.253 with parental 1321N1 cells ([compound],M -4.77815); 2.7 and 1.783 and -0.795 and 0.5801 in the test with parental 1321N1 cells ([compound],M -5.25527); 1.6114 and 0.4655 and 2.528 and 1.21 with parental 1321N1 cells ([compound],M -5.73239); -1.884 and -0.222 and -1.998 and 1.6114 with parental 1321N1 cells ([compound],M -6.20952); 5.507 and 2.986 and 0.6947 and 2.299 with parental 1321N1 cells ([compound],M -6.68664). For the same compound, the “Ca2+ response (Fig 2c), individual replicate values” in the test with parental 1321N1 cells ([compound],M -7.16376) was 5.851 and 0.8093 and -0.4512 and 3.674; in the test with parental 1321N1 cells ([compound],M -7.64088), -0.2793 and 2.6427 and 2.471 and 0.06446; in the test on parental 1321N1 cells ([compound],M -8.118) it was -2.571 and 1.726 and 3.502 and 0.5801; with parental 1321N1 cells ([compound],M -8.59512), -3.717 and -6.009 and -11.1079 and -4.175.

What is called Kd is the equilibrium constant for the complex coming apart. Take `C[C@@H](C1CCCCC1)n1c(-c2cc3c(cc2Br)OCO3)nc2cc(C(=O)Nc3ccc(C#N)cc3)ccc21` [AZ3451]: binding in test [1] was put at a Kd of 14 nM.

Turning to `CCCc1cc(F)ccc1C(O)c1ncc[nH]1` (centres unmarked) [AZ8838], in test [2], the residence time entry was “about 84 min”.
